From PubChem BioAssay AID1963838 (Molecular Pharmacology Branch, DTP, NCI, 2024)

Tested on: 855422-203-R-J1-PDC complex spheroid viability
Experiment: Anticancer human tumor 855422-203-R-J1-PDC patient-derived bladder carcinoma cell line growth inhibition [POLQ]
Details: for IC50: curve of first compound; for viability, T/C: stronger effect = lower value; active means viability on the fitted dose curve at most 10% of control; inactive means the rest
Procedure: Multicellular complex tumor spheroid response to Polymerase (POL) inhibitors (novobiocin, ART-558, RP6685) in combination with a variety of drugs and investigational agents in selected tumor cell lines
The POL inhibitors (novobiocin, ART-558, and RP6685) were evaluated both individually and in combination with standard of care and investigational anticancer small molecules within a complex spheroid model of solid tumors. . Complex spheroids include a stromal component modeled by human endothelial cells (HUVEC) and fibroblasts modeled by human mesenchymal stem cells (MSCs). The concentration ranges selected for each drug and investigational agent were based upon clinically achievable concentrations if the clinical Cmax of the agent was known.
Compounds. The drugs and investigational agents: novobiocin (NSC847541), ART-558 (NSC835418), RP-6685 (NSC848927), peposertib (NSC802822), ceralasertib (NSC780249), elimusertib (NSC800525), camonsertib (NSC841442), AZD-1390 (NSC803789), olaparib (NSC753686), talazoparib (NSC767125), rucaparib (NSC756644), sotorasib (NSC818433), MRTX-1133 (NSC836407), SN-38 (NSC673596), topotecan (NSC609699), epotoside (NSC141540), doxorubicin (NSC123127), gemcitabine (NSC613327), 5-fluorouracil (NSC19893), paclitaxel (NSC125973), vemurafenib (NSC761431), MSA-2 (NSC828583), SN-011 (NSC837082), adavosertib (NSC754352), prexasertib (NSC758257), carboplatin (NSC241240) and oxaliplatin (NSC266046), were obtained from the National Cancer Institute (NCI) Developmental Therapeutics Program Chemical Repository (21). The FDA-approved anticancer drug set is available from the Developmental Therapeutics Program at https://dtp.cancer.gov/organization/dscb/obtaining/. […] The stock solutions were prepared in dimethyl sulfoxide (DMSO, Sigma-Aldrich, St. Louis, MO, cat. D2650), except for the platinum compounds which were prepared in saline (Quality Biological, Gaithersburg, MD, cat. 114-055-101), at 800-fold the tested concentration and stored at -70 degrees C prior to their use. All drugs and investigational agents were tested over a range starting from a high concentration at or near the clinical Cmax and decreasing in half-log increments. If the clinical Cmax for an agent had not been determined, the highest concentration tested was 10 microM, except for SN-38, which was tested at a high concentration of 1 microM.
Cell Culture. All cells were maintained in an incubator at 37 degrees C and 5% CO2 with 95% humidity. The PDC lines were cultured according to standard operating procedures established by the NCI PDMR (https://pdmr.cancer.gov). Table 3 of the manuscript, lists the cell lines along with the number of the three cell types plated to form the mct-spheroids and media for tumor cell growth. After thawing, all PDC lines, except 997537-175-T-J1-PDC and 415267-285-R-J2-PDC, were cultured in Matrigel-coated flasks prepared with a working solution of 1X Ham's F-12 nutrient mix, without supplementation (Thermo Fisher Scientific, cat. 11765054), 100 U/mL penicillin-streptomycin (Thermo Fisher Scientific, cat. 15140122), and 2.5% Matrigel (Corning Inc., Corning, NY, cat. 354248) for the first three passages. The two PDC lines 997537-175-T-J1-PDC and 415267-285-R-J2-PDC were cultured on uncoated flasks. The 857933-349-R-J2-PDC line was cultured in 6C/Colon 1B media containing advanced DMEM/F-12 (Thermo Fisher Scientific, cat. 12634028), 10 mM HEPES (Thermo Fisher Scientific, cat. 15630080), 1X GlutaMAX supplement (Thermo Fisher Scientific, cat. 35050061), 0.1 mg/mL primocin (InvivoGen, San Diego, CA, cat. ant-pm-2), 10% defined fetal bovine serum, heat inactivated (HyClone Laboratories Inc., Logan, UT, cat. SH30070.03HI), 50% L-WRN conditioned media (ATCC, cat. CRL-3276), 1.25 mM N-Acetyl-L-cysteine (Sigma-Aldrich, cat. A9165), 10 mM nicotinamide (Sigma-Aldrich, cat. N0636), 1X B-27 supplement (Thermo Fisher Scientific, cat. 17504044), 1X N-2 supplement (Thermo Fisher Scientific, cat. […]

[1] = second compound 0.0316 µM, first compound 0.0316 µM
[2] = second compound 0.0316 µM, first compound 0.1 µM
[3] = second compound 0.0316 µM, first compound 0.316 µM
[4] = second compound 0.0316 µM, first compound 1 µM
[5] = second compound 0.1 µM, first compound 0.0316 µM
[6] = second compound 0.1 µM, first compound 0.1 µM
[7] = second compound 0.1 µM, first compound 0.316 µM
[8] = second compound 0.1 µM, first compound 1 µM
[9] = second compound 0.316 µM, first compound 0.0316 µM
[10] = second compound 0.316 µM, first compound 0.1 µM
[11] = second compound 0.316 µM, first compound 0.316 µM
[12] = second compound 0.316 µM, first compound 1 µM
[13] = second compound 1 µM, first compound 0.0316 µM
[14] = second compound 1 µM, first compound 0.1 µM
[15] = second compound 1 µM, first compound 0.316 µM
[16] = second compound 1 µM, first compound 1 µM
[17] = second compound 3.16 µM, first compound 0.0316 µM
[18] = second compound 3.16 µM, first compound 0.1 µM
[19] = second compound 3.16 µM, first compound 0.316 µM
[20] = second compound 3.16 µM, first compound 1 µM
[21] = second compound 10 µM, first compound 0.0316 µM
[22] = second compound 10 µM, first compound 0.1 µM
[23] = second compound 10 µM, first compound 0.316 µM
[24] = second compound 10 µM, first compound 1 µM
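Further: spheroids exposed to compounds for seven days before readout.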

C=CCn1c(=O)c2cnc(Nc3ccc(N4CCN(C)CC4)cc3)nc2n1-c1cccc(C(C)(C)O)n1 + Cc1cccc(N(C)C(=O)C2C(O)CCN2c2nc(C)cc(C(F)(F)F)c2C#N)c1
inactive: viability, T/C (second compound 0.0316 µM, first compound 0.00316 µM) 109% | viability, T/C (second compound 0.0316 µM, first compound 0.01 µM) 124% | viability, T/C [1] 98% | viability, T/C [2] 100% | viability, T/C [3] 113% | viability, T/C [4] 148% | viability, T/C (second compound 0.1 µM, first compound 0.00316 µM) 110% | viability, T/C (second compound 0.1 µM, first compound 0.01 µM) 122% | viability, T/C [5] 93% | viability, T/C [6] 99% | viability, T/C [7] 124% | viability, T/C [8] 175% | viability, T/C (second compound 0.316 µM, first compound 0.00316 µM) 102% | viability, T/C (second compound 0.316 µM, first compound 0.01 µM) 101% | viability, T/C [9] 95.7% | viability, T/C [10] 101% | viability, T/C [11] 126% | viability, T/C [12] 173% | viability, T/C (second compound 1 µM, first compound 0.00316 µM) 87.7% | viability, T/C (second compound 1 µM, first compound 0.01 µM) 112% | viability, T/C [13] 91.1% | viability, T/C [14] 118% | viability, T/C [15] 124% | viability, T/C [16] 165% | viability, T/C (second compound 3.16 µM, first compound 0.00316 µM) 91.4% | viability, T/C (second compound 3.16 µM, first compound 0.01 µM) 107% | viability, T/C [17] 100% | viability, T/C [18] 105% | viability, T/C [19] 115% | viability, T/C [20] 186% | viability, T/C (second compound 10 µM, first compound 0.00316 µM) 119% | viability, T/C (second compound 10 µM, first compound 0.01 µM) 105% | viability, T/C [21] 115% | viability, T/C [22] 137% | viability, T/C [23] 208% | viability, T/C [24] 123%
> 1 µM: IC50 (second compound 0.0316 µM) | IC50 (second compound 0.1 µM) | IC50 (second compound 0.316 µM) | IC50 (second compound 1 µM) | IC50 (second compound 3.16 µM) | IC50 (second compound 10 µM)

CC(=O)O[C@H]1C(=O)[C@@]2(C)[C@H]([C@H](OC(=O)c3ccccc3)[C@]3(O)C[C@H](OC(=O)[C@H](O)[C@@H](NC(=O)c4ccccc4)c4ccccc4)C(C)=C1C3(C)C)[C@]1(OC(C)=O)CO[C@@H]1C[C@@H]2O + Cc1cccc(N(C)C(=O)C2C(O)CCN2c2nc(C)cc(C(F)(F)F)c2C#N)c1
inactive: viability, T/C (second compound 0.0316 µM, first compound 0.00949 µM) 13.6% | viability, T/C (second compound 0.0316 µM, first compound 0.03 µM) 9.26% | viability, T/C (second compound 0.0316 µM, first compound 0.0949 µM) 11.7% | viability, T/C (second compound 0.0316 µM, first compound 0.3 µM) 9.48% | viability, T/C (second compound 0.0316 µM, first compound 0.949 µM) 11.1% | viability, T/C (second compound 0.0316 µM, first compound 3 µM) 12.6% | viability, T/C (second compound 0.1 µM, first compound 0.00949 µM) 16.4% | viability, T/C (second compound 0.1 µM, first compound 0.03 µM) 10.2% | viability, T/C (second compound 0.316 µM, first compound 0.00949 µM) 11.8% | viability, T/C (second compound 0.316 µM, first compound 0.03 µM) 10.8% | viability, T/C (second compound 1 µM, first compound 0.00949 µM) 9.84% | viability, T/C (second compound 1 µM, first compound 0.03 µM) 12% | viability, T/C (second compound 1 µM, first compound 0.0949 µM) 9.05% | viability, T/C (second compound 1 µM, first compound 0.3 µM) 9.65% | viability, T/C (second compound 1 µM, first compound 0.949 µM) 10.3% | viability, T/C (second compound 1 µM, first compound 3 µM) 10.7% | viability, T/C (second compound 3.16 µM, first compound 0.00949 µM) 11.4% | viability, T/C (second compound 3.16 µM, first compound 0.03 µM) 11.7% | viability, T/C (second compound 3.16 µM, first compound 0.0949 µM) 10.1% | viability, T/C (second compound 3.16 µM, first compound 0.3 µM) 10.2% | viability, T/C (second compound 3.16 µM, first compound 0.949 µM) 11.5% | viability, T/C (second compound 3.16 µM, first compound 3 µM) 10.8% | viability, T/C (second compound 10 µM, first compound 0.00949 µM) 13.1% | viability, T/C (second compound 10 µM, first compound 0.03 µM) 11.8% | viability, T/C (second compound 10 µM, first compound 0.0949 µM) 12.8% | viability, T/C (second compound 10 µM, first compound 0.3 µM) 10.9% | viability, T/C (second compound 10 µM, first compound 0.949 µM) 12% | viability, T/C (second compound 10 µM, first compound 3 µM) 11.9%
< 0.00949 µM: IC50 (second compound 0.0316 µM) | IC50 (second compound 0.1 µM) | IC50 (second compound 0.316 µM) | IC50 (second compound 1 µM) | IC50 (second compound 3.16 µM) | IC50 (second compound 10 µM)
active: viability, T/C (second compound 0.1 µM, first compound 0.0949 µM) 9.03% | viability, T/C (second compound 0.1 µM, first compound 0.3 µM) 7.34% | viability, T/C (second compound 0.1 µM, first compound 0.949 µM) 9.39% | viability, T/C (second compound 0.1 µM, first compound 3 µM) 8.97% | viability, T/C (second compound 0.316 µM, first compound 0.0949 µM) 8.92% | viability, T/C (second compound 0.316 µM, first compound 0.3 µM) 9.41% | viability, T/C (second compound 0.316 µM, first compound 0.949 µM) 10.9% | viability, T/C (second compound 0.316 µM, first compound 3 µM) 9.92%

CNCc1ccc(-c2[nH]c3cc(F)cc4c3c2CCNC4=O)cc1 + Cc1cccc(N(C)C(=O)C2C(O)CCN2c2nc(C)cc(C(F)(F)F)c2C#N)c1
inactive: viability, T/C [1] 115% | viability, T/C [2] 101% | viability, T/C [3] 99.2% | viability, T/C [4] 104% | viability, T/C (second compound 0.0316 µM, first compound 3.16 µM) 114% | viability, T/C (second compound 0.0316 µM, first compound 10 µM) 108% | viability, T/C [5] 101% | viability, T/C [6] 101% | viability, T/C [7] 90.5% | viability, T/C [8] 107% | viability, T/C (second compound 0.1 µM, first compound 3.16 µM) 111% | viability, T/C (second compound 0.1 µM, first compound 10 µM) 106% | viability, T/C [9] 107% | viability, T/C [10] 115% | viability, T/C [11] 112% | viability, T/C [12] 103% | viability, T/C (second compound 0.316 µM, first compound 3.16 µM) 113% | viability, T/C (second compound 0.316 µM, first compound 10 µM) 120% | viability, T/C [13] 101% | viability, T/C [14] 105% | viability, T/C [15] 101% | viability, T/C [16] 103% | viability, T/C (second compound 1 µM, first compound 3.16 µM) 114% | viability, T/C (second compound 1 µM, first compound 10 µM) 105% | viability, T/C [17] 112% | viability, T/C [18] 108% | viability, T/C [19] 118% | viability, T/C [20] 98.8% | viability, T/C (second compound 3.16 µM, first compound 3.16 µM) 108% | viability, T/C (second compound 3.16 µM, first compound 10 µM) 111% | viability, T/C [21] 110% | viability, T/C [22] 95.6% | viability, T/C [23] 100% | viability, T/C [24] 104% | viability, T/C (second compound 10 µM, first compound 3.16 µM) 116% | viability, T/C (second compound 10 µM, first compound 10 µM) 107%
> 10 µM: IC50 (second compound 0.0316 µM) | IC50 (second compound 0.1 µM) | IC50 (second compound 0.316 µM) | IC50 (second compound 1 µM) | IC50 (second compound 3.16 µM) | IC50 (second compound 10 µM)
